A short description of test [1]: Inhibition of metallo-beta-lactamase L1 (unknown origin) overexpressed in Escherichia coli BL21(DE3) preincubated for 30 mins followed by addition of cefazolin as substrate by spectrophotometric method.
The next test relates to Escherichia coli. Description: Potentiation of cefazolin-induced antibacterial activity against Escherichia coli BL21(DE3) assessed as cefazolin MIC at 16 ug/ml measured after 12 hrs by macrodilution broth method (reference value: 4 ug/ml). Format: functional.
A short description of test [2]: Inhibition of metallo-beta-lactamase L1 (unknown origin) overexpressed in Escherichia coli BL21(DE3) assessed as restoration of cefazolin antibacterial activity by measuring cefazolin MIC at 16 ug/ml measured after 12 hrs by macrodilution broth method (reference value: 16 ug/ml).

Molecules are shown by their SMILES. Converted amounts (≈) assume the structure as drawn.

As for `CCCCCC(=O)N[C@@H](Cc1ccccc1)C(=O)SCC(=O)O`, half-maximal inhibition in test [1] (IC50) was put at 0.33 µM. Also, the MIC with Escherichia coli was 4 mg/L; in test [2], 2 mg/L (≈ 5.93 µM).

In test [1], `CCCCCC(=O)N[C@@H](Cc1c[nH]c2ccccc12)C(=O)SCC(=O)O` yielded a half-maximal inhibitory concentration (IC50) of 0.6 µM. In addition, the MIC with Escherichia coli turned out to be 4 mg/L; in test [2], 4 mg/L (≈ 10.6 µM).

With `O=C(O)CSC(=O)[C@H](Cc1c[nH]c2ccccc12)NC(=O)Cc1ccccc1`, the 50% inhibitory concentration (IC50) in test [1] came to 0.21 µM. Moreover, the MIC in the test on Escherichia coli stood at 4 mg/L; in test [2] it was 4 mg/L (≈ 10.1 µM).

`CSCC[C@H](NC(=O)Cc1ccccc1)C(=O)SCC(=O)O` displayed an IC50 in test [1] of 0.09 µM. Moreover, the MIC stood at 4 mg/L in the test on Escherichia coli and 4 mg/L (≈ 11.7 µM) in test [2].

`O=C(O)CSC(=O)[C@H](Cc1ccccc1)NC(=O)Cc1ccccc1` gave a half-inhibitory concentration (IC50) in test [1] of 0.25 µM. Also, the MIC in the test with Escherichia coli was determined as 4 mg/L; in test [2], 2 mg/L (≈ 5.6 µM).

The compound `O=C(O)CSC(=O)[C@H](Cc1ccccc1)NC(=O)Cc1ccc(-c2ccccc2)cc1` came in with a half-inhibitory concentration (IC50) in test [1] of 0.14 µM. The MIC stood at 4 mg/L in the test with Escherichia coli and 2 mg/L (≈ 4.61 µM) in test [2].

`CSCC[C@H](NC(=O)c1ccccc1)C(=O)SCC(=O)O` registered an IC50 in test [1] of 0.08 µM. The figures for the MIC (in the test with Escherichia coli; in test [2]) were 4 mg/L and 4 mg/L (≈ 12.2 µM), respectively.

Consider `O=C(O)CSC(=O)c1ccc(NC(=O)OCc2ccccc2)cc1`, for which the results for the MIC (with Escherichia coli; in test [2]) were 4 mg/L and 16 mg/L (≈ 46.3 µM), respectively.

On to `O=C(O)CSC(=O)[C@H](Cc1c[nH]c2ccccc12)NC(=O)Cc1ccc(-c2ccccc2)cc1`, for which half-maximal inhibition in test [1] (IC50) required 0.08 µM. Moreover, the MIC in the test on Escherichia coli was 4 mg/L; in test [2], 4 mg/L (≈ 8.46 µM).

In the case of `CSCC[C@H](NC(=O)Cc1ccc(-c2ccccc2)cc1)C(=O)SCC(=O)O`, the half-inhibitory concentration (IC50) in test [1] was found to be 0.02 µM. Moreover, the values for the MIC (with Escherichia coli; in test [2]) were 4 mg/L and 4 mg/L (≈ 9.58 µM), respectively.

The values are drawn from ChEMBL document CHEMBL3860053, “Optimization of amino acid thioesters as inhibitors of metallo-β-lactamase L1” (Bioorg Med Chem Lett, 2016).
